# Source: US20240279237A1, “FUSED BICYCLIC HETEROARYL COMPOUNDS USEFUL AS NLRP3 INHIBITORS” (Hoffmann-La Roche Inc., priority 2021, published 2024)
# Where a name gives a salt, the structure may show the parent alone.
# Target: T1, NLRP3 (Homo sapiens, UniProt Q96P20)
# T1 construct: Seed THP-1 cells (25,000 cells/well) containing 1.0 μg/ml LPS in 40 μl of RPMI medium; host or cells: THP-1 cells
# Assay: THP-1 Cells Pyroptosis Assay
# Type: cell-based
# Conditions: THP-1 cells with 1.0 μg/ml LPS; compound 3 hours; nigericin 5 μM 1 hr; resazurin readout
# Experimental: The cells were routinely passaged and grown to confluency (˜10^6 cells/ml). On the day of the experiment, THP-1 cells were harvested and resuspended into RPMI medium (without FBS). The cells were then counted and viability (>90%) checked by Trypan blue (Sigma #T8154). […] To this diluted cell solution was added LPS (Sigma #L4524) to give a 1 μg/ml Final Assay Concentration (FAC). 40 μl of the final preparation was aliquoted into each well of a 96-well plate. The plate thus prepared was used for compound screening.
# The following method step-by-step assay was followed for compound screening. • 1. […] Incubate for 3 hours at 37° C., 5% CO2 • 4. Add 5 μl nigericin (Sigma #N7143) (FAC 5 μM) to all wells • 5. Incubate for 1 hr at 37° C., 5% CO2 • 6. At the end of the incubation period, spin plates at 300×g for 3 mins and remove supernatant • 7. Then add 50 μl of resazurin (Sigma #R7017) (FAC 100 μM resazurin in RPMI medium without FBS) and incubate plates for a further 1-2 hours at 37° C. and 5% CO2 • 8.
# T1 sequence (Q96P20 whole entry): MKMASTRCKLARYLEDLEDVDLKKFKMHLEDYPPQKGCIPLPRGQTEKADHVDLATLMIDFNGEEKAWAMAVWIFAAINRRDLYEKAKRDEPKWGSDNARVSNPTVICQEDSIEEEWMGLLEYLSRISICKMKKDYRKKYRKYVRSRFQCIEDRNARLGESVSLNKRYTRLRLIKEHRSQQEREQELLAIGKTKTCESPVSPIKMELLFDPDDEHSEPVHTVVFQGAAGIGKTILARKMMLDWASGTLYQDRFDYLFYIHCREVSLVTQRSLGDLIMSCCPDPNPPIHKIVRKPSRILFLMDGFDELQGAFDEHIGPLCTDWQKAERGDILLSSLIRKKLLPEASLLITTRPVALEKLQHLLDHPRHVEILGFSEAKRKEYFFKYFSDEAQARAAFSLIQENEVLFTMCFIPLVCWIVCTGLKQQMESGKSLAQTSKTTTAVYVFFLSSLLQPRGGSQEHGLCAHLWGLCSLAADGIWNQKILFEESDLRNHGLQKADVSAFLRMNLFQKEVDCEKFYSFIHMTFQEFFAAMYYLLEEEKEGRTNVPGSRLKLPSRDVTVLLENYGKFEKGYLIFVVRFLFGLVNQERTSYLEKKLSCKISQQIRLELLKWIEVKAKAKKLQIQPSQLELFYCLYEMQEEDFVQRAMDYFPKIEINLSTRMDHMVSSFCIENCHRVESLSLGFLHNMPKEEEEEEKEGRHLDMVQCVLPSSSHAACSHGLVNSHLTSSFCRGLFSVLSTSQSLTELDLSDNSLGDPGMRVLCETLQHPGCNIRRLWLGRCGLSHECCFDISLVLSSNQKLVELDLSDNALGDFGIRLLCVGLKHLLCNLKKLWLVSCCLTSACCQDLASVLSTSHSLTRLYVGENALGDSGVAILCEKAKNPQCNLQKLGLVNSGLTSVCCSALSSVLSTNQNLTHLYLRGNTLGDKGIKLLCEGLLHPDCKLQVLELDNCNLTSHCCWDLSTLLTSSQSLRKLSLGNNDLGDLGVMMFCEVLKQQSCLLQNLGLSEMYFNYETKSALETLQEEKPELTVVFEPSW
row,Compound,IC50 [nM]
1,"Cc1cc(C#N)cc(O)c1-c1ccc2oc(N[C@H]3CCCN4CCC[C@@H]34)nc2n1 (single isomer, unassigned) [Example 139A, 4-[2-[[(8S,8aS)-1,2,3,5,6,7,8,8a-Octahydroindolizin-8-yl]amino]oxazolo[4,5-b]pyridin-5-yl]-3-hydroxy-5-methyl-benzonitrile or 4-[2-[[(8R,8aR)-1,2,3,5,6,7,8,8a-octahydroindolizin-8-yl]amino]oxazolo[4,5-b]pyridin-5-yl]-3-hydroxy-5-methyl-benzonitrile]",3.7
2,"Cc1cc(C#N)cc(O)c1-c1ccc2oc(NC3CCCN4CCCC34)nc2n1 (single isomer, unassigned) [Example 139B, 4-[2-[[(8R,8aR)-1,2,3,5,6,7,8,8a-Octahydroindolizin-8-yl]amino]oxazolo[4,5-b]pyridin-5-yl]-3-hydroxy-5-methyl-benzonitrile or 4-[2-[[(8S,8aS)-1,2,3,5,6,7,8,8a-octahydroindolizin-8-yl]amino]oxazolo[4,5-b]pyridin-5-yl]-3-hydroxy-5-methyl-benzonitrile]",59.9
3,"Cc1cc(C(F)(F)F)cc(O)c1-c1ccc2oc(N3CCOCC3)nc2n1 [Example 4, 3-Methyl-2-(2-morpholinooxazolo[4,5-b]pyridin-5-yl)-5-(trifluoromethyl)phenol]",29.4
4,"Cc1cc(C(F)(F)F)cc(O)c1-c1ccc2oc(N3CCNCC3)nc2n1 [Example 6, 3-Methyl-2-(2-piperazin-1-yloxazolo[4,5-b]pyridin-5-yl)-5-(trifluoromethyl)phenol formic acid salt]",86.6
5,"Cc1cc(C(F)(F)F)cc(O)c1-c1ccc2[nH]c(N3CCNCC3)nc2n1 [Example 8, 3-Methyl-2-(2-piperazin-1-yl-1H-imidazo[4,5-b]pyridin-5-yl)-5-(trifluoromethyl)phenol;2,2,2-trifluoroacetic acid]",302
6,"Cc1cc(C(F)(F)F)cc(O)c1-c1ccc2oc(N3CC(O)C3)nc2n1 [Example 12, 1-[5-[2-Hydroxy-6-methyl-4-(trifluoromethyl)phenyl]oxazolo[4,5-b]pyridin-2-yl]azetidin-3-ol]",215
7,"Cc1cc(C(F)(F)F)cc(O)c1-c1ccc2oc(NC3CCCC(O)C3)nc2n1 (stereo not shown) [Example 13, 2-[2-[(3-Hydroxycyclohexyl)amino]oxazolo[4,5-b]pyridin-5-yl]-3-methyl-5-(trifluoromethyl)phenol]",442
8,"CCN1CCC[C@@H](Nc2nc3nc(-c4c(C)cc(C(F)(F)F)cc4O)ccc3o2)C1 [Example 14, 2-[2-[[(3R)-1-Ethyl-3-piperidyl]amino]oxazolo[4,5-b]pyridin-5-yl]-3-methyl-5-(trifluoromethyl)phenol]",1
9,"Cc1cc(C(F)(F)F)cc(O)c1-c1ccc2oc(N[C@@H]3CCCN(C)C3)nc2n1 [Example 15, 3-Methyl-2-[2-[[(3R)-1-methyl-3-piperidyl]amino]oxazolo[4,5-b]pyridin-5-yl]-5-(trifluoromethyl)phenol]",0.7
10,"CCN1CCC[C@@H](Nc2nc3nc(-c4c(C)cc(Cl)c(F)c4O)ccc3o2)C1 [Example 21, 5-Chloro-2-[2-[[(3R)-1-ethyl-3-piperidyl]amino]oxazolo[4,5-b]pyridin-5-yl]-6-fluoro-3-methyl-phenol;2,2,2-trifluoroacetic acid salt]",0.6
11,"CCN1CCC[C@@H](Nc2nc3nc(-c4c(O)cc(Cl)cc4C#N)ccc3o2)C1 [Example 23, 5-Chloro-2-[2-[[(3R)-1-ethyl-3-piperidyl]amino]oxazolo[4,5-b]pyridin-5-yl]-3-hydroxy-benzonitrile]",4.2
12,"CCN1CCCC(Nc2nc3nc(-c4c(O)cc(Cl)cc4COC)ccc3o2)C1 [Example 24, 5-Chloro-2-[2-[[(3R)-1-ethyl-3-piperidyl]amino]oxazolo[4,5-b]pyridin-5-yl]-3-(methoxymethyl)phenol;2,2,2-trifluoroacetic acid salt]",1.7
13,"CCN1CCC[C@@H](Nc2nc3nc(-c4c(C)cc(C#N)cc4O)ccc3o2)C1 [Example 25, 4-[2-[[(3R)-1-Ethyl-3-piperidyl]amino]oxazolo[4,5-b]pyridin-5-yl]-3-hydroxy-5-methyl-benzonitrile]",1.6
14,"Cc1cc(C#N)cc(O)c1-c1ccc2oc(N[C@@H]3CCCN(C)C3)nc2n1 [Example 26, 3-Hydroxy-5-methyl-4-[2-[[(3R)-1-methyl-3-piperidyl]amino]oxazolo[4,5-b]pyridin-5-yl]benzonitrile]",2.8
15,"CCN1C[C@@H](O)C[C@@H](Nc2nc3nc(-c4c(C)cc(C#N)cc4O)ccc3o2)C1 [Example 28, 4-[2-[[(3R,5S)-1-Ethyl-5-hydroxy-3-piperidyl]amino]oxazolo[4,5-b]pyridin-5-yl]-3-hydroxy-5-methyl-benzonitrile;formic acid salt]",4.6
16,"CN1CCCC(Nc2nc3nc(-c4c(O)cc(C(F)(F)F)cc4C(F)F)ccc3o2)C1 [Example 30, 3-(Difluoromethyl)-2-[2-[[(3R)-1-methyl-3-piperidyl]amino]oxazolo[4,5-b]pyridin-5-yl]-5-(trifluoromethyl)phenol;2,2,2-trifluoroacetic acid salt]",4.5

row,Compound,IC50 [nM]
1,"CCN1CCC[C@@H](Nc2nc3nc(-c4c(O)cc(C(F)(F)F)cc4OC)ccc3o2)C1 [Example 31, 2-[2-[[(3R)-1-Ethyl-3-piperidyl]amino]oxazolo[4,5-b]pyridin-5-yl]-3-methoxy-5-(trifluoromethyl)phenol;2,2,2-trifluoroacetic acid salt]",4
2,"Cc1cc(C(F)(F)F)cc(O)c1-c1cc(C)c2oc(N[C@@H]3CCCN(C)C3)nc2n1 [Example 33, 3-Methyl-2-[7-methyl-2-[[(3R)-1-methyl-3-piperidyl]amino]oxazolo[4,5-b]pyridin-5-yl]-5-(trifluoromethyl)phenol;2,2,2-trifluoroacetic acid salt]",5.8
3,"COc1cc(C)c(-c2ccc3oc(N[C@@H]4CCCN(C)C4)nc3n2)c(O)c1 [Example 34, 5-Methoxy-3-methyl-2-[2-[[(3R)-1-methyl-3-piperidyl]amino]oxazolo[4,5-b]pyridin-5-yl]phenol]",18.9
4,"CCN1CCC[C@@H](Nc2nc3nc(-c4ccc5c(c4O)CCO5)c(C)cc3o2)C1 [Example 35, 5-[2-[[(3R)-1-Ethyl-3-piperidyl]amino]-6-methyl-oxazolo[4,5-b]pyridin-5-yl]-2,3-dihydrobenzofuran-4-ol]",27.3
5,"Cc1cc(C2CC2)cc(O)c1-c1ccc2oc(N[C@@H]3CCCN(C)C3)nc2n1 [Example 36, 5-Cyclopropyl-3-methyl-2-[2-[[(3R)-1-methyl-3-piperidyl]amino]oxazolo[4,5-b]pyridin-5-yl]phenol]",32
6,"Cc1cc(Cl)cc(O)c1-c1ccc2oc(N3CCOC4CCN(C)CC43)nc2n1 (stereo not shown) [Example 42, 5-Chloro-3-methyl-2-[2-(6-methyl-3,4a,5,7,8,8a-hexahydro-2H-pyrido[4,3-b][1,4]oxazin-4-yl)oxazolo[4,5-b]pyridin-5-yl]phenol]",5.1
7,"Cc1cc(C(F)(F)F)cc(O)c1-c1ccc2oc(NCC34CC(CN3)C4)nc2n1 [Example 43, 2-[2-(2-Azabicyclo[2.1.1]hexan-1-ylmethylamino)oxazolo[4,5-b]pyridin-5-yl]-3-methyl-5-(trifluoromethyl)phenol;dihydrochloride]",30.5
8,"Cc1cc(Cl)cc(O)c1-c1ccc2oc(N[C@@H]3CCCN(C)C3)nc2n1 [Example 44, 5-Chloro-3-methyl-2-[2-[[(3R)-1-methyl-3-piperidyl]amino]oxazolo[4,5-b]pyridin-5-yl]phenol]",0.7
9,"CCN1CCC[C@@H](Nc2nc3nc(-c4c(C)cc(F)cc4O)ccc3o2)C1 [Example 45, 2-[2-[[(3R)-1-Ethyl-3-piperidyl]amino]oxazolo[4,5-b]pyridin-5-yl]-5-fluoro-3-methyl-phenol]",0.9
10,"CCCN1CCC[C@@H](Nc2nc3nc(-c4c(C)cc(Cl)cc4O)ccc3o2)C1 [Example 46, 5-Chloro-3-methyl-2-[2-[[(3R)-1-propyl-3-piperidyl]amino]oxazolo[4,5-b]pyridin-5-yl]phenol]",1
11,"Cc1cc(Cl)cc(O)c1-c1ccc2oc(N[C@@H]3CCCN(C4CCC4)C3)nc2n1 [Example 47, 5-Chloro-2-[2-[[(3R)-1-cyclobutyl-3-piperidyl]amino]oxazolo[4,5-b]pyridin-5-yl]-3-methyl-phenol]",1.2
12,"CCN1CCC[C@@H](Nc2nc3nc(-c4c(C)cc5c(c4O)CCO5)ccc3o2)C1 [Example 48, 5-[2-[[(3R)-1-Ethyl-3-piperidyl]amino]oxazolo[4,5-b]pyridin-5-yl]-6-methyl-2,3-dihydrobenzofuran-4-ol]",1.2
13,"Cc1cc(Cl)cc(O)c1-c1ccc2oc(N[C@@H]3C[C@H](O)CN(C)C3)nc2n1 [Example 49, (3S,5R)-5-[[5-(4-Chloro-2-hydroxy-6-methyl-phenyl)oxazolo[4,5-b]pyridin-2-yl]amino]-1-methyl-piperidin-3-ol]",1.6
14,"Cc1cc(F)cc(O)c1-c1ccc2oc(N[C@@H]3CCCN(C)C3)nc2n1 [Example 50, 5-Fluoro-3-methyl-2-[2-[[(3R)-1-methyl-3-piperidyl]amino]oxazolo[4,5-b]pyridin-5-yl]phenol]",1.7
15,"CCN1C[C@@H](O)C[C@@H](Nc2nc3nc(-c4c(C)cc(C(F)(F)F)cc4O)ccc3o2)C1 [Example 51, (3S,5R)-1-Ethyl-5-[[5-[2-hydroxy-6-methyl-4-(trifluoromethyl)phenyl]oxazolo[4,5-b]pyridin-2-yl]amino]piperidin-3-ol]",1.8
